According to publication PMC9221442, “Design, Synthesis and Characterization of [G10a]-Temporin SHa Dendrimers as Dual Inhibitors of Cancer and Pathogenic Microbes” (Biomolecules, 2022):
Read-outs that look alike come from different tables or passages of the source. Where a SMILES comes first, the peptide text is derived from it. Bridges are numbered along the chain shown (N, C = ends). Roman numbers before positions name the chains, in order. Where no end group is shown, it is not given here. [ ]: non-standard residue; d: D form.

How the values were obtained:
human red blood cells = assay: Hemolysis assay; type: cell-based; details: for hemolysis: 100 µM; for estimated HC50 (concentration causing 50% of hemolysis): 1 h
Method: (§1) The ability of dendrimers and peptides to cause hemolysis was evaluated using human whole red blood cells. Briefly, fresh human erythrocytes (obtained from Divbio Science Europe, NL) were washed 3 times by centrifugation at 800× g for 5 min with sterile phosphate buffer saline (PBS, pH 7.4). The washed erythrocytes were resuspended in complete culture media (DMEM supplemented with 10% FBS) to a final concentration of 8%. Human erythrocytes were then added into sterile 96-well microplates (150 µL per well) and were exposed to increasing concentrations of peptides or dendrimers. After 1 h incubation at 37 °C, plates were centrifuged at 800× g for 5 min. Then, 100 µL of supernatant were carefully transferred to a new 96-well microplate and absorbance was measured at 450 nm using microplate reader. Triton-X100 at 0.1% (v/v) was used as positive control giving 100% hemolysis. The HC50 values of peptides and dendrimers (i.e., the concentration of compound causing 50% of hemolysis) were calculated using GraphPad® Prism 7 software.

[1] = Stability study at different pH; details: pH 2 to pH 14
Method: The stability of dendrimers at different pH values and temperatures was also determined. For this, a 510 model digital pH meter (Oakton Eutech) with working electrode of glass material and a Ag/AgCl as reference electrode was used for the pH record. […] Similarly, stability of monomer [G10a]-SHa and its three dendrimers was checked by heating the peptide dendrimers on different temperature ranges, i.e., room temperature, 35 °C, 40 °C, 50 °C and 60 °C.

[2] = system: breast cancer cells MCF-7; type: cell-based, human; details: 48 h
Method: (§2) The antiproliferative effect of the peptides was determined by using human cells, as previously described. Human cancer cells used in this experiment were ovarian cancer cells A2780 (obtained from ECACC), breast cancer cells MCF-7 (obtained from ATCC), liver cancer cells HepG2 (obtained from ATCC), lung cancer cells A549 (obtained from ATCC), pancreatic cancer cells MiaPaCa (obtained from ATCC), prostate cancer cells PC-3 (obtained from ATCC), and skin cancer cells MNT-1 (generous gift from the National Institute of Health (NIH). Normal human cells used were human lung fibroblasts IMR-90 (obtained from ATCC). All cells were cultured in DMEM which was supplemented with 10% fetal bovine serum (FBS), 1% L-glutamine, and 1% antibiotics (all from Invitrogen) at 37 °C in 5% CO2 incubator. For cytotoxicity assay, cells were maintained in 25 cm^2 flasks. Cells were separated from flasks using trypsin-EDTA solution (from Thermofisher) and counted using Malassez chamber and diluted in culture medium before seeding into 96-well cell-culture plates (Greiner bio-one, Paris, France) at approximately 3000 cells/well. Cells were then treated with increasing concentration of peptides diluted in culture medium (1:2 serial dilution, from 100 µM to 0 µM). After 48 h, medium was aspirated and number of viable cells was colorimetrically determined using resazurin-based assay following manufacturer’s instructions. The fluorescence intensity was measured using microplate reader (Biotek, Santa Clara, CA, USA, Synergy Mx) with an excitation wavelength of 530 nm and an emission wavelength of 590 nm. The fluorescence values were normalized by the controls (untreated cells) and expressed as percent of proliferation. The IC50 values of peptides (i.e., the concentrations causing 50% inhibition of cell proliferation) were determined using GraphPad® Prism 7 software.

[3] = system: prostate cancer cells PC-3; type: cell-based, human; details: 48 h
Method: as §2

skin cancer cells MNT-1 = type: cell-based, human; details: 48 h
Method: as §2

[4] = system: pancreatic cancer cells MiaPaCa; type: cell-based, human; details: 48 h
Method: as §2

[5] = system: ovarian cancer cells A2780; type: cell-based, human; details: 48 h
Method: as §2

liver cancer cells HepG2 = type: cell-based, human; details: 48 h
Method: as §2

lung cancer cells A549 = type: cell-based, human; details: 48 h
Method: as §2

[6] = system: human lung fibroblasts IMR-90; type: cell-based; details: 48 h
Method: as §2

human cancer cells = type: cell-based
Method: as §2

[7] = Stability study at different temperatures (absorbance spectrum); details: room temperature, 35 °C, 40 °C, 50 °C and 60 °C
Method: The stability of dendrimers at different pH values and temperatures was also determined. For this, a 510 model digital pH meter (Oakton Eutech) with working electrode of glass material and a Ag/AgCl as reference electrode was used for the pH record. Dilute solutions of HCl and NaOH were added to adjust the pH of the solution from 2 to 12. Similarly, stability of monomer [G10a]-SHa and its three dendrimers was checked by heating the peptide dendrimers on different temperature ranges, i.e., room temperature, 35 °C, 40 °C, 50 °C and 60 °C.

Hemolysis assay = type: cell-based, human; details: human; at 100 µM, 1 h, 37 °C, relative to Triton X-100 0.1%
Method: as §1

[8] = system: Pseudomonas aeruginosa (ATCC 9027); type: cell-based; details: P. aeruginosa (ATCC 9027), 18–24 h, aerobic
Method: (§3) Experiments were performed in triplicate (n = 3).

[9] = system: Helicobacter pylori (ATCC 43504); type: cell-based; details: H. pylori (ATCC 43504), 18–24 h, micro-aerobic
Method: as §3

[10] = system: Bacillus subtilis (ATCC 6633); type: cell-based; details: B. subtilis (ATCC 6633), 18–24 h, aerobic
Method: as §3

[11] = system: Escherichia coli (ATCC 8739); type: cell-based; details: E. coli (ATCC 8739), 18–24 h, aerobic
Method: as §3

[12] = system: Enterobacter cloacae (DSM 30054); type: cell-based; details: E. cloacae (DSM 30054), 18–24 h, aerobic
Method: as §3

[13] = system: Klebsiella pneumoniae (DSM 26371); type: cell-based; details: K. pneumoniae (DSM 26371), 18–24 h
Method: as §3

[14] = system: Enterococcus faecium (DSM 20477); type: cell-based; details: E. faecium (DSM 20477), 18–24 h, micro-aerobic
Method: as §3

[15] = system: Enterococcus faecalis (DSM 2570); type: cell-based; details: E. faecalis (DSM 2570), 18–24 h, micro-aerobic
Method: as §3

[16] = system: Staphylococcus aureus (ATCC 6538); type: cell-based; details: S. aureus (ATCC 6538), 18–24 h, aerobic
Method: as §3

[17] = system: Acinetobacter baumannii (DSM 30007); type: cell-based; details: A. baumannii (DSM 30007), 18–24 h, aerobic
Method: as §3

[18] = Dynamic light scattering (zetasizer); type: physicochemical
Method: The dendrimeric solutions of peptides were transferred into transparent cuvette with care to remove bubble formation. The sample was then transferred to the cell holder and study was performed at 90° scattering angle at room temperature. The standard viscosity and refractive index were kept constant and kept at 1.0, 1.33 and 80.4 mPa, respectively.

Molecule	hemolytic activity (in words) (human red blood cells)	hemolysis (human red blood cells)	estimated HC50 (concentration causing 50% of hemolysis) (human red blood cells; red cells of human)	stability at different pH [1]	IC50 [2]	IC50 [3]	IC50 (skin cancer cells MNT-1)	IC50 [4]	IC50 [5]	IC50 (liver cancer cells HepG2)	IC50 (lung cancer cells A549)	IC50 [6]	IC50 (human cancer cells; 48 h)	stability at different temperatures [7]	minimal inhibitory concentration (MIC) [9]	minimal inhibitory concentration (MIC) [11]	minimal inhibitory concentration (MIC) [16]	minimal inhibitory concentration (MIC) [17]	other results
CC[C@H](C)[C@H](NC(=O)CNC(=O)[C@H](CO)NC(=O)[C@H](CC(C)C)NC(=O)[C@@H](N)Cc1ccccc1)C(=O)N[C@H](C(=O)NCC(=O)N[C@@H](CCSC)C(=O)N[C@@H](CC(C)C)C(=O)N[C@H](C)C(=O)N[C@@H](CCCCN)C(=O)N[C@@H](CC(C)C)C(=O)N[C@@H](Cc1ccccc1)C(=O)NCCCC[C@H](NC(=O)[C@H](Cc1ccccc1)NC(=O)[C@H](CC(C)C)NC(=O)[C@H](CCCCN)NC(=O)[C@@H](C)NC(=O)[C@H](CC(C)C)NC(=O)[C@H](CCSC)NC(=O)CNC(=O)[C@@H](NC(=O)[C@@H](NC(=O)CNC(=O)[C@H](CO)NC(=O)[C@H](CC(C)C)NC(=O)[C@@H](N)Cc1ccccc1)[C@@H](C)CC)C(C)C)C(N)=O)C(C)C [[G10a]2-SHa] (HELM PEPTIDE1{F.L.S.G.I.V.G.M.L.[dA].K.L.F.K.[am]}|PEPTIDE2{F.L.S.G.I.V.G.M.L.[dA].K.L.F}$PEPTIDE1,PEPTIDE2,14:R3-13:R2$$$V2.0)	high hemolytic activity	complete hemolysis	11.55 ± 0.38 µM	significantly stable at pH values up to 10 and unstable at high pH values of 12 and 14	5.69 ± 1.46 µM	6.31 ± 0.66 µM	4.72 ± 0.36 µM	8.71 ± 0.35 µM	4.42 ± 0.06 µM	14.3 ± 1.37 µM	3.79 ± 1.61 µM	22.3 ± 0.4 µM	6.85 ± 3.66 µM	considerable stability up to 60 °C					
FLSGIVGMLGKLF-NH2 [Temporin SHa, H-Phe^1-Leu^2-Ser^3-Gly^4-Ile^5-Val^6-Gly^7-Met^8-Leu^9-Gly^10-Lys^11-Leu^12-Phe^13-NH2]															3.12 µM	50 µM	3.12 µM	6.25 µM	estimated HC50 (concentration causing 50% of hemolysis) (human red blood cells; human erythrocytes, 37 °C): 266.20 ± 41.27 µM; hemolysis at 1 h, 100 µM (Hemolysis assay): 24.5 ± 1.88%; IC50 ([2]; Breast Cancer (MCF-7), read-out: IC50 (cell proliferation)): 20.4 ± 5.64 µM; IC50 ([3]; Prostate Cancer (PC-3), read-out: IC50 (cell proliferation)): > 100 µM; IC50 (skin cancer cells MNT-1; Skin Cancer (MNT-1), read-out: IC50 (cell proliferation)): > 100 µM; IC50 ([4]; Pancreatic Cancer (MiaPaCa), read-out: IC50 (cell proliferation)): > 100 µM; IC50 ([5]; Ovarian Cancer (A2780), read-out: IC50 (cell proliferation)): > 100 µM; IC50 (liver cancer cells HepG2; Liver Cancer (HepG-2), read-out: IC50 (cell proliferation)): > 100 µM; IC50 (lung cancer cells A549; Lung Cancer (A549), read-out: IC50 (cell proliferation)): > 100 µM; IC50 ([6]; Human Normal Fibroblast (IMR-90), read-out: IC50 (cell proliferation)): > 100 µM; IC50 (human cancer cells; all cells except breast cancer MCF-7, up to 100 µM, read-out: IC50 on the human cells tested other than MCF-7): > 100 µM; minimal inhibitory concentration (MIC) [8]: 50 µM; minimal inhibitory concentration (MIC) [10]: 1.56 µM; minimal inhibitory concentration (MIC) [12]: 50 µM; minimal inhibitory concentration (MIC) [13]: 50 µM; minimal inhibitory concentration (MIC) [14]: 6.25 µM; minimal inhibitory concentration (MIC) [15]: 12.5 µM
I: H-FLSGIVGML[dA]KLFKK-NH2 / II: H-FLSGIVGML[dA]KLF / III: H-FLSGIVGML[dA]KLF (amide I:14-III:C, I:15-II:C) [[G10a]3-SHa]	high hemolytic activity	complete hemolysis	10.46 ± 0.36 µM	significantly stable at pH values up to 10 and unstable at high pH values of 12 and 14	3.77 ± 0.12 µM	1.84 ± 0.17 µM	2.24 ± 0.05 µM	6.94 ± 0.27 µM	2.31 ± 0.08 µM	5.49 ± 0.37 µM	3.74 ± 3.46 µM	13.9 ± 0.42 µM	3.76 ± 1.87 µM	considerable stability up to 60 °C	25 µM	25 µM	6.25 µM	3.12 µM	Pdi Values (polydispersity index) ([18]; DLS): 0.462; average hydrodynamic diameter ([18]; DLS): about 46.13 nm; Z-Average ([18]; DLS, room temperature): 46.13 nm·days; Zeta Potential ([18]; zetasizer): −71.2 mV; times more active than [G10a]-SHa at inhibiting multiplying cancer cells (human cancer cells; from mean IC50 on human cancer cells): 4.8 times
